# Reference: US10517889B2, “Modulators of SMAD7 expression” (Ionis Pharmaceuticals, Inc., priority 2017, dated 2019)
# pIC50: −log10 of the molar value.
# How the values were obtained:
# [1] = Organ weights after oral gavage in beagle dogs (Example 12); conditions: 200 mg oral gavage for 4 weeks, day 30
# Description: Groups of 24-25 week old male beagle dogs were administered 200 mg Ionis human SMAD7 oligonucleotide by oral gavage once a week for 4 weeks. There were 4 animals per group. A control group of dogs received oral administration of distilled water. Dogs were sacrificed on day 30 approximately 48 hours after the final dose and organs and plasma were harvested for further analysis.
# [2] = Oligonucleotide concentrations in tissues by LC-MS/MS after oral gavage in CD-1 mice (Example 7); format: in vivo; conditions: 500 mg/kg oral gavage once daily for 4 weeks, 48 hours after last dose
# Description: (§1) Groups of 7-8 week old male CD-1 mice were given an oral gavage dose once daily for 4 weeks of 500 mg/kg of Ionis SMAD7 oligonucleotides. Each group contained 8 mice. One group of male CD-1 mice was administered saline by oral gavage daily.
# Oligonucleotide concentrations were detected in various tissues by LC-MS/MS analysis. The greatest concentration was found in the kidney, followed by the colon.
# [3] = Oligonucleotide concentration in liver and colon by LC-MS/MS after subcutaneous administration in CD-1 mice (Example 6); format: in vivo; conditions: 50 mg/kg subcutaneously twice a week for 7 weeks, 48 hours after the last dose
# Description: Groups of 8-9 week old male CD-1 mice were injected subcutaneously twice a week for 7 weeks with 50 mg/kg of Ionis oligonucleotides (100 mg/kg/week dose). Each group contained 4 mice. One group of male CD-1 mice was injected subcutaneously twice a week for 7 weeks with PBS. Plasma was collected for analysis on day 28.
# Oligonucleotide concentrations in the liver and colon were analyzed using LC-MS/MS method.
# [4] = test system: dog SMAD7 mRNA; test: Pharmacology: dog SMAD7 mRNA expression in liver, kidney, duodenum, ileum and colon after subcutaneous administration in beagle dogs (Example 8); format: in vivo; conditions: 30 mg/kg subcutaneous, necropsy, normalized to HPRT1
# Description: (§2) There were 4 animals per group.
# The pharmacological activity of the Ionis oligonucleotides in dogs was assessed by measuring dog SMAD7 mRNA expression in liver, kidney, duodenum, ileum, and colon at necropsy. All the human ASOs used are complementary to dog SMAD7 mRNA.
# Tissue samples from all dogs were analyzed for SMAD7 mRNA expression using the primer probe set RTS34649 (forward sequence […], designated SEQ ID NO: 2740; reverse sequence […], designated SEQ ID NO: 2741; probe sequence […], designated SEQ ID NO: 2742), which was normalized to mRNA levels of the housekeeping gene, HPRT1. One-way ANOVA with Dunnet's comparison test was used for statistical analysis.
# [5] = Hematology assays after oral gavage in CD-1 mice (Example 7); format: in vivo; set-up: RBC: unit not given here; conditions: 500 mg/kg oral gavage once daily for 4 weeks
# Description: as §1
# Blood obtained from all mouse groups was measured by an ADVIA2120i hematology analyzer (Siemens, USA) for measurements of the various blood cells, as well as other hematology markers. None of the Ionis SMAD7 oligonucleotides caused changes in the levels of any of the hematology markers outside the expected range for antisense oligonucleotides.
# [6] = Body and organ weights after subcutaneous administration in beagle dogs (Example 8); format: in vivo; conditions: 30 mg/kg subcutaneous days 1, 3, 5, 8, 15, 22, 29, end of study
# Description: as §2
# Body weights as well as kidney, spleen, liver (with gall bladder), mesenteric lymph node, heart, and thymus weights were measured at the end of the study. […] Ionis SMAD7 oligonucleotides that caused any changes in organ weights outside the expected range for antisense oligonucleotides were excluded from further studies.
# [7] = test system: murine Smad7 mRNA; test: Dose-dependent inhibition of murine Smad7 mRNA in bEND cells, electroporation (Example 5, Study 2); format: cell-based, mouse; conditions: electroporation; for % inhibition of SMAD7 mRNA expression: approximately 16 hours
# Outline: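 Mouse bEND cells electroporated with oligonucleotide at several doses and treated for approximately 16 hours. Smad7 mRNA quantified by real-time RT-PCR (primer probe set RTS1114), normalised to total RNA by RiboGreen. Reported as percent inhibition relative to untreated cells.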
# [8] = Hematology assays after subcutaneous administration in beagle dogs (Example 8); format: in vivo; conditions: 30 mg/kg subcutaneous days 1, 3, 5, 8, 15, 22, 29
# Description: as §2
# Blood samples were collected from the cephalic vein or saphenous vein of each animal. About 0.5 mL of blood samples was put into tubes containing the potassium salt of EDTA. Blood obtained from all dog groups was measured using an ADVIA2120i hematology analyzer for measurements of the various blood cells, as well as other hematology markers.
substance,measurement,setting,value
"790615 (CCAATGAGAATGCTTC; 3-10-3 cEt gapmer, further chemistry not given here) [compound 790615]",Kidney weight (% of control),[1],94 % of control
same,Liver weight (% of control),[1],85 % of control
same,Spleen weight (% of control),[1],106 % of control
same,"Oligonucleotide concentration, Colon",[2],2.9 µg/g
same,"Oligonucleotide concentration, Duodenum",[2],0.9 µg/g
same,"Oligonucleotide concentration, Ileum",[2],1.6 µg/g
same,"Oligonucleotide concentration, Kidney",[2],23.6 µg/g
same,"Oligonucleotide concentration, Liver",[2],2.8 µg/g
same,"Oligonucleotide concentration, Colon",[3],13 μg/g tissue
same,"Oligonucleotide concentration, Liver",[3],75 μg/g tissue
same,"% inhibition of SMAD7 mRNA expression (compared to control), Distal colon",[4],31%
same,"% inhibition of SMAD7 mRNA expression (compared to control), Duodenum",[4],35%
same,"% inhibition of SMAD7 mRNA expression (compared to control), Ileum",[4],0%
same,"% inhibition of Smad7 mRNA expression (compared to control), Kidney",[4],37%
same,"% inhibition of Smad7 mRNA expression (compared to control), Liver",[4],9%
same,"% inhibition of SMAD7 mRNA expression (compared to control), Proximal colon",[4],41%
same,Basophils,[5],0.01 10^3/μL
same,Eosinophils,[5],0.11 10^3/μL
same,Hematocrit,[5],52.2%
same,Hemoglobin,[5],15.2 g/dL
same,Lymphocytes,[5],78.3%
same,MCH,[5],15.0 pg
same,MCHC,[5],29.1 g/dL
same,MCV,[5],51.6 fL
same,Monocytes,[5],0.15 10^3/μL
same,Neutrophils,[5],16.0%
same,RBC,[5],10.1
same,Reticulocytes,[5],2.8%
same,WBC,[5],5.4 10^3/μL
same,platelets,[5],1033 10^3/μL
same,Body weight,[6],7372 g
same,Heart weight,[6],63.6 g
same,Kidney weight,[6],44.1 g
same,Liver weight,[6],253.7 g
same,Mesenteric LN weight,[6],10.2 g
same,Spleen weight,[6],32.3 g
same,Thymus weight,[6],9.9 g
same,% inhibition of SMAD7 mRNA expression,[7]; 0.25 μM,7%
same,% inhibition of SMAD7 mRNA expression,[7]; 0.74 μM,18%
same,% inhibition of SMAD7 mRNA expression,[7]; 2.22 μM,37%
same,% inhibition of SMAD7 mRNA expression,[7]; 6.67 μM,47%
same,% inhibition of SMAD7 mRNA expression,[7]; 20.00 μM,64%
same,pIC50,[7],5.14
same,Basophils,[8],0.5%
same,Eosinophils,[8],2.6%
same,Hematocrit,[8],45%
same,Hemoglobin,[8],14.5 g/dL
same,Lymphocytes,[8],36%
same,MCH,[8],21.9 pg
same,MCHC,[8],32.5 g/dL
same,MCV,[8],68 fL
same,Monocytes,[8],7.9%
same,Neutrophils,[8],53%
same,PLT,[8],242 ^3/μL
same,RBC,[8],6.6 ^6/L
same,Reticulocytes,[8],0.7%
same,WBC,[8],7.1 ^3/μL
"830121 (AGAATCAAGCCCTGGC; 3-10-3 cEt gapmer, further chemistry not given here) [compound 830121]","Oligonucleotide concentration, Colon",[2],2.7 µg/g
same,"Oligonucleotide concentration, Duodenum",[2],0.4 µg/g
same,"Oligonucleotide concentration, Ileum",[2],1.1 µg/g
same,"Oligonucleotide concentration, Kidney",[2],13.2 µg/g
same,"Oligonucleotide concentration, Liver",[2],0.9 µg/g
same,"Oligonucleotide concentration, Colon",[3],14 μg/g tissue
same,"Oligonucleotide concentration, Liver",[3],50 μg/g tissue
same,"% inhibition of SMAD7 mRNA expression (compared to control), Distal colon",[4],21%
same,"% inhibition of SMAD7 mRNA expression (compared to control), Duodenum",[4],55%
same,"% inhibition of SMAD7 mRNA expression (compared to control), Ileum",[4],0%
same,"% inhibition of Smad7 mRNA expression (compared to control), Kidney",[4],39%
same,"% inhibition of Smad7 mRNA expression (compared to control), Liver",[4],0%
same,"% inhibition of SMAD7 mRNA expression (compared to control), Proximal colon",[4],20%
same,Basophils,[5],0.01 10^3/μL
same,Eosinophils,[5],0.08 10^3/μL
same,Hematocrit,[5],51.8%
same,Hemoglobin,[5],15.1 g/dL
same,Lymphocytes,[5],81.7%
same,MCH,[5],15.0 pg
same,MCHC,[5],29.1 g/dL
same,MCV,[5],51.6 fL
same,Monocytes,[5],0.15 10^3/μL
same,Neutrophils,[5],11.6%
same,RBC,[5],10.0
same,Reticulocytes,[5],3.0%
same,WBC,[5],4.1 10^3/μL
same,platelets,[5],1170 10^3/μL
same,Body weight,[6],6091 g
same,Heart weight,[6],52.6 g
same,Kidney weight,[6],40.0 g
same,Liver weight,[6],202.0 g
same,Mesenteric LN weight,[6],12.2 g
same,Spleen weight,[6],27.5 g
same,Thymus weight,[6],2.8 g
same,% inhibition of SMAD7 mRNA expression,[7]; 0.25 μM,0%
same,% inhibition of SMAD7 mRNA expression,[7]; 0.74 μM,6%
same,% inhibition of SMAD7 mRNA expression,[7]; 2.22 μM,12%
same,% inhibition of SMAD7 mRNA expression,[7]; 6.67 μM,17%
same,% inhibition of SMAD7 mRNA expression,[7]; 20.00 μM,20%
same,pIC50,[7],< 4.70
same,Basophils,[8],0.8%
same,Eosinophils,[8],2.5%
same,Hematocrit,[8],56%
same,Hemoglobin,[8],18.5 g/dL
same,Lymphocytes,[8],30%
same,MCH,[8],21.7 pg
same,MCHC,[8],32.9 g/dL
same,MCV,[8],66 fL
same,Monocytes,[8],7.7%
same,Neutrophils,[8],59%
same,PLT,[8],249 ^3/μL
same,RBC,[8],8.5 ^6/L
same,Reticulocytes,[8],0.5%
same,WBC,[8],8.2 ^3/μL
